{
  "source": "patent US10385108B2",
  "about": "“Peptide analogs of alpha-melanocyte stimulating hormone” (Genzyme Corporation, priority 2008, dated 2019)",
  "test_system": "B16-F1 murine melanoma cells",
  "assay": "Intracellular cAMP in B16-F1 melanoma cells",
  "format": "cell-based",
  "procedure": "B16-F1 (melanoma cell line) cells from American Type Culture Collection (Manassas, Va.) were seeded into flat bottom 96 well plates at 5×10^4/well and cultured overnight in DMEM (Cambrex, Walkersville, Md.) supplemented with 2 mM glutamine, antibiotics (100 U/ml penicillin and 100 […]) and 10% heat-inactivated fetal bovine serum (Invitrogen, Grand Island, N.Y.). […] Cells were lysed and intracellular cAMP levels were measured by an enzyme immunoassay kit (Amersham Biosciences, Piscataway, N.J.). Forskolin (Sigma, St. Louis, Mo.) at 100 μM served as positive controls.\ncAMP levels in B16-F1 melanoma cells after treatment with native α-MSH, RI α-MSH, or a scrambled control peptide were examined. The […] melanoma cell line expresses a high number of MCR1 receptors (3000-4000 receptors/cell) compared with macrophages cell lines which express only 100-200 receptors/cell. Therefore we selected to examine the effect of the RI α-MSH treatment on the melanoma cell line. Murine melanoma B16-F1 cells were treated with native α-MSH, RI α-MSH, or control scrambled peptide at concentrations 1 pg/ml-1 μg/ml. After 30 min, cells were lysed and intracellular cAMP was measured by an enzyme immunoassay. […] However, a higher concentration of RI α-MSH (100 ng/ml) was necessary to increase cAMP compared with native α-MSH which increased cAMP at a 10 pg/ml concentration. This difference in concentration of peptide necessary to increase cAMP levels may be the result of the binding affinity to the MCR1 receptor.\nMurine melanoma B16-F1 cells were treated with native α-MSH, RI α-MSH, scrambled peptide control, KPV, or alanine substituted peptides of RI α-MSH at 1 μg/ml (FIG. 7B). […] Peptides designated 810, 811, and 812 have alanine substitutions in the central core tetrapeptide sequence (D-Trp D-Arg D-Phe D-His region; AA 5-8) (variant disclosed in SEQ ID NO:2) proposed to be involved in native α-MSH binding to the melanocortin receptor and its biological activity. […] The residues in the core tetrapeptide (wrfh) (variant disclosed in SEQ ID NO:2) and to a lesser extent, the methionine 4 of RI-MSH are critical for binding to MC1R.\nB16-F1 murine melanoma cells were cultured into 96 well plates 5×10^4 cells/well overnight in media with L-glutamine and pen/strep and FBS. Media was removed and new media with IBMX was added to the cells for 1 hr. Cells were then treated with RI α-MSH, or RI α-MSH peptide analogs (890, 891, 892, 893, 894 or 895). Cells were lysed after 30 min using a cAMP assay kit and supernatant were used in the assay. Forskolin at 10 μM served as positive controls.\nIntracellular cAMP was measured using a cAMP competition Assay Kit (Amersham Biosciences). All cell lysate samples were diluted 1:100 for analysis.\nMurine melanoma B16-F1 cells were treated with RI α-MSH, or RI α-MSH analogs (869, 872, 880, 878, 886 and 890-895) at a concentration range of 10^−4-10^−11 M. cAMP levels from cells treated with RI α-MSH, or RI α-MSH analogs. […] See FIG. 22 for graphical data and Table 2 for EC50 data.",
  "data": [
    {"smiles": "CSCC[C@@H](NC(=O)[C@@H](CCC(=O)O)NC(=O)[C@@H](Cc1c[nH]cn1)NC(=O)[C@@H](Cc1ccccc1)NC(=O)[C@@H](CCCNC(=N)N)NC(=O)[C@@H](Cc1c[nH]c2ccccc12)NC(=O)CNC(=O)[C@@H](CCCCN)NC(=O)[C@H]1CCCN1C(=O)[C@H](NC(C)=O)C(C)C)C(=O)N[C@H](CO)C(=O)N[C@H](Cc1ccc(O)cc1)C(=O)N[C@H](CO)C(N)=O", "note": "[RI-MSH, vpkGwrfhemsys]", "values": [
      {"measurement": "cAMP levels, dose response (in words)", "setting": "1 pg/ml-1 μg/ml, 30 min, vs untreated or scrambled peptide", "result": "significantly increased cAMP levels in a dose dependent manner"},
      {"measurement": "concentration necessary to increase cAMP", "setting": "30 min", "result": 100, "unit": "ng/mL"},
      {"measurement": "EC50", "setting": "B16-F1 cells, 10^-4-10^-11 M, 30 min, IBMX", "result": 9.7, "unit": "µM"},
      {"measurement": "cAMP levels (in words)", "setting": "peptide at 1 μg/ml", "result": "significantly elevated"}
    ]}
  ]
}
